Tested on: healthy adults (18 to 35 years)
Experiment: Spatial Memory Task, Stroop task and Continuous Performance task in healthy adults
Assay type: in vivo, human
Conditions: 100 mcg, 300 mcg, 1000 mcg single administration
Experimental: In addition to the VLT (immediate recall and delayed recall), the subjects were also tested in the Spatial Memory Task, the Stroop task and the Continuous Performance task (a description of these additional cognitive battery tests can be found in Example 3).
Spatial memory task (SMT) The spatial memory task assesses spatial memory and is based on the object relocation task by Postma and colleagues (Kessels, Postma et al, Behav Res Methods Instrum Comput. 1999, Vol 31(3) pp 423-428). It consists of one immediate and two delayed conditions. In the immediate condition, a set of 10 pictures will be presented one by one on different locations within a white square on a computer screen. All pictures are everyday, easy-to-name objects, presented in gray scale (±3.5×5 cm). Each picture will be presented for 2000 msec with an interstimulus interval of 1000 msec. […]
Twenty-four hours after the immediate condition, subjects will return to the lab and perform the task again. […] As with the other tests, the EEG will be recorded during this task and this will later be analysed. No EEG will be recorded during the 24h-measurement. […]
Stroop task The Stroop task is well known for its ability to induce interference, and assesses response inhibition and focused attention. […] However, because of the urge to read the printed words (even if one is asked to ignore them) interference occurs. […]

O=C(Nc1c(Cl)cncc1Cl)c1ccc(OC(F)F)c(OCC2CC2)c1 [roflumilast, N-(3,5-dichloropyridin-4-yl)-3-cyclopropylmethoxy-4-difluoromethoxybenzamide]
difference between placebo and drug treatment in the Spatial Memory Task, the Stroop task and the Continuous Performance task: No statistically significant differences
